Experiments:
[1] = target: Dual specificity testis-specific protein kinase 1 (Homo sapiens) (UniProt Q15569); assay: Inhibition of TESK1 assessed as residual activity at 10 uM using [33P-ATP] by radiometric filter binding assay
[2] = target: Serine/threonine-protein kinase BRSK2 (Homo sapiens) (UniProt Q8IWQ3); assay: Inhibition of BRSK2 assessed as residual activity at 10 uM using [33P-ATP] by radiometric filter binding assay
[3] = target: RAC-beta serine/threonine-protein kinase (Homo sapiens) (UniProt P31751); assay: Inhibition of PKBbeta assessed as residual activity at 10 uM using [33P-ATP] by radiometric filter binding assay
[4] = target: Mitogen-activated protein kinase 1 (Homo sapiens) (UniProt P28482); assay: Inhibition of ERK2 assessed as residual activity at 10 uM using [33P-ATP] by radiometric filter binding assay
[5] = target: Misshapen-like kinase 1 (Homo sapiens) (UniProt Q8N4C8); assay: Inhibition of MINK1 assessed as residual activity at 10 uM using [33P-ATP] by radiometric filter binding assay
[6] = target: Protein-tyrosine kinase 6 (Homo sapiens) (UniProt Q13882); assay: Inhibition of BRK assessed as residual activity at 10 uM using [33P-ATP] by radiometric filter binding assay
[7] = target: MAP kinase-activated protein kinase 3 (Homo sapiens) (UniProt Q16644); assay: Inhibition of MAPKAP-K3 assessed as residual activity at 10 uM using [33P-ATP] by radiometric filter binding assay
[8] = target: Dual specificity tyrosine-phosphorylation-regulated kinase 3 (Homo sapiens) (UniProt O43781); assay: Inhibition of DYRK3 assessed as residual activity at 10 uM using [33P-ATP] by radiometric filter binding assay
[9] = target: Serine/threonine-protein kinase Nek6 (Homo sapiens) (UniProt Q9HC98); assay: Inhibition of NEK6 assessed as residual activity at 10 uM using [33P-ATP] by radiometric filter binding assay
[10] = target: Inhibitor of nuclear factor kappa-B kinase subunit epsilon (Homo sapiens) (UniProt Q14164); assay: Inhibition of IKKepsilon assessed as residual activity at 10 uM using [33P-ATP] by radiometric filter binding assay
[11] = target: Serine/threonine-protein kinase tousled-like 1 (Homo sapiens) (UniProt Q9UKI8); assay: Inhibition of TLK1 assessed as residual activity at 10 uM using [33P-ATP] by radiometric filter binding assay
[12] = target: Mitogen-activated protein kinase 9 (Homo sapiens) (UniProt P45984); assay: Inhibition of JNK2 assessed as residual activity at 10 uM using [33P-ATP] by radiometric filter binding assay
[13] = target: Protein kinase C alpha type (Homo sapiens) (UniProt P17252); assay: Inhibition of PKCalpha assessed as residual activity at 10 uM using [33P-ATP] by radiometric filter binding assay
[14] = target: Serine/threonine-protein kinase OSR1 (Homo sapiens) (UniProt O95747); assay: Inhibition of OSR1 assessed as residual activity at 10 uM using [33P-ATP] by radiometric filter binding assay
[15] = target: Serine/threonine-protein kinase TBK1 (Homo sapiens) (UniProt Q9UHD2); assay: Inhibition of TBK1 assessed as residual activity at 10 uM using [33P-ATP] by radiometric filter binding assay
[16] = target: Serine/threonine-protein kinase 26 (Homo sapiens) (UniProt Q9P289); assay: Inhibition of MST4 assessed as residual activity at 10 uM using [33P-ATP] by radiometric filter binding assay
[17] = target: Homeodomain-interacting protein kinase 3 (Homo sapiens) (UniProt Q9H422); assay: Inhibition of HIPK3 assessed as residual activity at 10 uM using [33P-ATP] by radiometric filter binding assay
[18] = target: Interleukin-1 receptor-associated kinase 1 (Homo sapiens) (UniProt P51617); assay: Inhibition of IRAK1 assessed as residual activity at 10 uM using [33P-ATP] by radiometric filter binding assay
[19] = target: 3-phosphoinositide-dependent protein kinase 1 (Homo sapiens) (UniProt O15530); assay: Inhibition of PDK1 assessed as residual activity at 10 uM using [33P-ATP] by radiometric filter binding assay
[20] = target: Ribosomal protein S6 kinase alpha-5 (Homo sapiens) (UniProt O75582); assay: Inhibition of MSK1 assessed as residual activity at 10 uM using [33P-ATP] by radiometric filter binding assay
[21] = target: Serine/threonine-protein kinase pim-2 (Homo sapiens) (UniProt Q9P1W9); assay: Inhibition of PIM2 assessed as residual activity at 10 uM using [33P-ATP] by radiometric filter binding assay
[22] = target: Serine/threonine-protein kinase Chk2 (Homo sapiens) (UniProt O96017); assay: Inhibition of CHK2 assessed as residual activity at 10 uM using [33P-ATP] by radiometric filter binding assay
[23] = target: Myosin light chain kinase, smooth muscle (Homo sapiens) (UniProt Q15746); assay: Inhibition of SmMLCK assessed as residual activity at 10 uM using [33P-ATP] by radiometric filter binding assay
[24] = target: NUAK family SNF1-like kinase 1 (Homo sapiens) (UniProt O60285); assay: Inhibition of NUAK1 assessed as residual activity at 10 uM using [33P-ATP] by radiometric filter binding assay
[25] = target: Homeodomain-interacting protein kinase 2 (Homo sapiens) (UniProt Q9H2X6); assay: Inhibition of HIPK2 assessed as residual activity at 10 uM using [33P-ATP] by radiometric filter binding assay
[26] = target: MAP/microtubule affinity-regulating kinase 3 (Homo sapiens) (UniProt P27448); assay: Inhibition of MARK3 assessed as residual activity at 10 uM using [33P-ATP] by radiometric filter binding assay
[27] = target: Glycogen synthase kinase-3 beta (Homo sapiens) (UniProt P49841); assay: Inhibition of GSK3b assessed as residual activity at 10 uM using [33P-ATP] by radiometric filter binding assay
[28] = target: Insulin receptor-related protein (Homo sapiens) (UniProt P14616); assay: Inhibition of IRR assessed as residual activity at 10 uM using [33P-ATP] by radiometric filter binding assay
[29] = target: High affinity nerve growth factor receptor (Homo sapiens) (UniProt P04629); assay: Inhibition of TrkA assessed as residual activity at 10 uM using [33P-ATP] by radiometric filter binding assay
[30] = target: Serine/threonine-protein kinase PLK1 (Homo sapiens) (UniProt P53350); assay: Inhibition of PLK1 assessed as residual activity at 10 uM using [33P-ATP] by radiometric filter binding assay
[31] = target: Mitogen-activated protein kinase kinase kinase 1 (Homo sapiens) (UniProt Q13233); assay: Inhibition of MEKK1 assessed as residual activity at 10 uM using [33P-ATP] by radiometric filter binding assay
[32] = target: Serine/threonine-protein kinase N2 (Homo sapiens) (UniProt Q16513); assay: Inhibition of PRK2 assessed as residual activity at 10 uM using [33P-ATP] by radiometric filter binding assay

Sequence of Misshapen-like kinase 1 (Homo sapiens) (Q8N4C8 whole entry, looked up): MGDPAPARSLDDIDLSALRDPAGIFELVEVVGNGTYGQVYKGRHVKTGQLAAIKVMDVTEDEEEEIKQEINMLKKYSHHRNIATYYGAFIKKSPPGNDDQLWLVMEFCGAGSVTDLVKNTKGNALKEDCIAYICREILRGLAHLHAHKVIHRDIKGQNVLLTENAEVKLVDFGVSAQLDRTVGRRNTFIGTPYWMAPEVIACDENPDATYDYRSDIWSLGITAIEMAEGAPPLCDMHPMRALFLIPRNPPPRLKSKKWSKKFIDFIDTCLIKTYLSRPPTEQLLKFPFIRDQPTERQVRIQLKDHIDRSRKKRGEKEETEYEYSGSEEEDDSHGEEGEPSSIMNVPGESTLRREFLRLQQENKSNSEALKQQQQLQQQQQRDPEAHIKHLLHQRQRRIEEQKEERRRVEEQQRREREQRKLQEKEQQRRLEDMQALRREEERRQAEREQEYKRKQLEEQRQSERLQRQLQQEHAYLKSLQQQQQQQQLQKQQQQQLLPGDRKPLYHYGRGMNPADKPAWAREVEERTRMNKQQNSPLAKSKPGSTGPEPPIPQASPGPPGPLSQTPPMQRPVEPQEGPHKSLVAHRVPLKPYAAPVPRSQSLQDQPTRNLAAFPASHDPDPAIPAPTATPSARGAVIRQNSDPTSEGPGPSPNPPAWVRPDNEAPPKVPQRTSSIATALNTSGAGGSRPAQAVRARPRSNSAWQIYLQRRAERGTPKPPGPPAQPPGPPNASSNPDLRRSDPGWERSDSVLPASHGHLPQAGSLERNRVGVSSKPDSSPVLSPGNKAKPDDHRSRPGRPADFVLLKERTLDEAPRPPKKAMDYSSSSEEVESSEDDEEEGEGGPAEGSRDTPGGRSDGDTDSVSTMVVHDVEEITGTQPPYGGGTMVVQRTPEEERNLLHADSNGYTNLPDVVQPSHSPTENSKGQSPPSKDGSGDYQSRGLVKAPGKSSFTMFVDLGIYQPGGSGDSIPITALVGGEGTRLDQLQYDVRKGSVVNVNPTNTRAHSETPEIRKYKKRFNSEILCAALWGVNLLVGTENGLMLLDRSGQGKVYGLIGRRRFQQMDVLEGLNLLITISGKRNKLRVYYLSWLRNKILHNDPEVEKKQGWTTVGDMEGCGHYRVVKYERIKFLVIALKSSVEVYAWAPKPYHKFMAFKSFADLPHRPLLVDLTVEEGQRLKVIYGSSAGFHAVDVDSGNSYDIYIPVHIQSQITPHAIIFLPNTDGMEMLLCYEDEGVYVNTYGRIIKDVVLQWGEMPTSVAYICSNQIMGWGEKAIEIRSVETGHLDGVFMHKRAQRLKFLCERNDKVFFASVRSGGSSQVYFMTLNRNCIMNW
Sequence of Protein-tyrosine kinase 6 (Homo sapiens) (Q13882 whole entry, looked up): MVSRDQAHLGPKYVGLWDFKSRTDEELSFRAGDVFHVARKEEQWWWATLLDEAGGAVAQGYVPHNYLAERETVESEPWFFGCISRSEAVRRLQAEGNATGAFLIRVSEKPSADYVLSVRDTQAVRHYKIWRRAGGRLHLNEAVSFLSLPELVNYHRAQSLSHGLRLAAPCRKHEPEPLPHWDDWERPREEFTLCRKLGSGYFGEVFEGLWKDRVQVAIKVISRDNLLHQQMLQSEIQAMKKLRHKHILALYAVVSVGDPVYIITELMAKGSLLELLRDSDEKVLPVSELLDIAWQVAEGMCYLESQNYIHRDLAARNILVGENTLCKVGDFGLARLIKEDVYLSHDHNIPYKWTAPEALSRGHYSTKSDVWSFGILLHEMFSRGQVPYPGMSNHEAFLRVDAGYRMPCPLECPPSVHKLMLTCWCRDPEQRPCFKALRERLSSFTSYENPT
Sequence of Serine/threonine-protein kinase TBK1 (Homo sapiens) (Q9UHD2 whole entry): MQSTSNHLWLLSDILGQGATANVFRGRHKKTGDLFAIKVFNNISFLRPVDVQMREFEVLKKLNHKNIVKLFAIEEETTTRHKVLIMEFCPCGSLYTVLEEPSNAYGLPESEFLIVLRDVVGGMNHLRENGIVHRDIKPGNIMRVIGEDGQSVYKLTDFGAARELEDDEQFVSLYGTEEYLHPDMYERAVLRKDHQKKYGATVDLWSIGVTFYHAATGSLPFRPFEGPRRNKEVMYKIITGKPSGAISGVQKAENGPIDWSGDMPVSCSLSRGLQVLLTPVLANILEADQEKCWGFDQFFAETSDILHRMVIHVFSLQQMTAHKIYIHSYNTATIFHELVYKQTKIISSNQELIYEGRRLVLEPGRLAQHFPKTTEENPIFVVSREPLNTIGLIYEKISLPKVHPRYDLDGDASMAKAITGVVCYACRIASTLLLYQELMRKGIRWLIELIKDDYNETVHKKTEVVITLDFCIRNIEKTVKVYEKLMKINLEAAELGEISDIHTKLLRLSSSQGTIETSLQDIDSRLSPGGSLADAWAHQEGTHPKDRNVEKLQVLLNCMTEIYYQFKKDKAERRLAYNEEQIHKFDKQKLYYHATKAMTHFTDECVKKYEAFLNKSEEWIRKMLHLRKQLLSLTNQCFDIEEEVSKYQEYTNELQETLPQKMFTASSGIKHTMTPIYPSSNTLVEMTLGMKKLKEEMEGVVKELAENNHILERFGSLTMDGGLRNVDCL
Sequence of MAP kinase-activated protein kinase 3 (Homo sapiens) (Q16644 whole entry, looked up): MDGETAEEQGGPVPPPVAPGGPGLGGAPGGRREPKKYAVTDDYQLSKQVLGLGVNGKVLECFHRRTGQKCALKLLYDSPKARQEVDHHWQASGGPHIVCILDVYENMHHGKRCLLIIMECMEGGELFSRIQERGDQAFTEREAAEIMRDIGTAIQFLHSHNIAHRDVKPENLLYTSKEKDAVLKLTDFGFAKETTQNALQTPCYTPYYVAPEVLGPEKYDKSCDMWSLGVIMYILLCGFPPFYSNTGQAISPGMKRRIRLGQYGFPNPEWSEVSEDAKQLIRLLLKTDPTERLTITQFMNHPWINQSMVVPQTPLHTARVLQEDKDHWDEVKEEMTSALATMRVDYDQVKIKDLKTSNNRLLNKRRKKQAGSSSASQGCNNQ
Sequence of Ribosomal protein S6 kinase alpha-5 (Homo sapiens) (O75582 whole entry, looked up): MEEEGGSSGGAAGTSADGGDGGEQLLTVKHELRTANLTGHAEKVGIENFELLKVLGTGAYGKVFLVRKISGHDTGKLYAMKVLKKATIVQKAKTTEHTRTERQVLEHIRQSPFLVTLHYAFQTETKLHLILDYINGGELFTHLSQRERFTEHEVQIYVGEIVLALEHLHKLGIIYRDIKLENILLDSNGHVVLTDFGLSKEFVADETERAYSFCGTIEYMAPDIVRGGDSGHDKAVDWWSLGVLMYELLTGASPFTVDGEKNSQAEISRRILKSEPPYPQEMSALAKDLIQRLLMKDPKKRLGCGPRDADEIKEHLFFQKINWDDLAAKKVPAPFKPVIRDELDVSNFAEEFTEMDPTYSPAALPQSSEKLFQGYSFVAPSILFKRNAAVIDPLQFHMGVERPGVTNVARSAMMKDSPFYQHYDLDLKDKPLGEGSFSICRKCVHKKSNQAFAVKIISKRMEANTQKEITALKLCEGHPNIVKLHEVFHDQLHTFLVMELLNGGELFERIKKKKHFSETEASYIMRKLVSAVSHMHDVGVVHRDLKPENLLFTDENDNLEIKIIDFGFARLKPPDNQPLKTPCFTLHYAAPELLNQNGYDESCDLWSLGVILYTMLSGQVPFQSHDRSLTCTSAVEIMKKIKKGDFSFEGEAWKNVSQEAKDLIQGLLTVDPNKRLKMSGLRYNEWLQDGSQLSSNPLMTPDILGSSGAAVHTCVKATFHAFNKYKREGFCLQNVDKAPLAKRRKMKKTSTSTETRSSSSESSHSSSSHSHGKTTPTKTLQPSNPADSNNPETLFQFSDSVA
Sequence of Serine/threonine-protein kinase 26 (Homo sapiens) (Q9P289 2-416 limits assumed): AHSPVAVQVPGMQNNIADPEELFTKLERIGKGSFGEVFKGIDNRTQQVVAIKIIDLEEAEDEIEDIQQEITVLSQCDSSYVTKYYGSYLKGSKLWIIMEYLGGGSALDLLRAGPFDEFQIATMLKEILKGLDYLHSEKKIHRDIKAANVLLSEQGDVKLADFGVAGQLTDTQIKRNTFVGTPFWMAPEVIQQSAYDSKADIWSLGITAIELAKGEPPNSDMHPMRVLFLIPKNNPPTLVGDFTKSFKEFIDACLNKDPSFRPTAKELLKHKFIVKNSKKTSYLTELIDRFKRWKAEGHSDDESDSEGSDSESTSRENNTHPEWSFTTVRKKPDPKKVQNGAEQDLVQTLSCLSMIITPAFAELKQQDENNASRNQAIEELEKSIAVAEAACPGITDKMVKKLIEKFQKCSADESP

Activity [1]: 23%
Activity [2]: 73%
Activity [3]: 77%
Activity [4]: 98%
Activity [5]: 65%
Activity [6]: 71%
Activity [7]: 84%
Activity [8]: 95%
Activity [9]: 86%
Activity [10]: 96%
Activity [11]: 99%
Activity [12]: 88%
Activity [13]: 112%
Activity [14]: 81%
Activity [15]: 107%
Activity [16]: 52%
Activity [17]: 94%
Activity [18]: 87%
Activity [19]: 103%
Activity [20]: 75%
Activity [21]: 100%
Activity [22]: 113%
Activity [23]: 63%
Activity [24]: 79%
Activity [25]: 98%
Activity [26]: 81%
Activity [27]: 73%
Activity [28]: 77%
Activity [29]: 45%
Activity [30]: 93%
Activity [31]: 115%
Activity [32]: 89%
SMILES: Cc1ccc(F)cc1-c1nc2[nH]nc(N)c2c2c1CCCC2

From ChEMBL document CHEMBL1926576, “Fragment based lead discovery of small molecule inhibitors for the EPHA4 receptor tyrosine kinase” (Eur J Med Chem, 2012)
